Assay results from US20240190855A1 (Relay Therapeutics, Inc., priority 2021, published 2024).

Target: T1, CDK2/Cyclin E complex (Homo sapiens, UniProt P24941)
T1 construct: purchased Eurofins 14-475
Test: CDK2/Cyclin E fluorescence-based microfluidic mobility shift assay (CDK2 Biochemical Caliper Assay)
Conditions: read-out: Biochemical CDK2/CyclinE Caliper IC50
Procedure: Compounds of the present disclosure were tested in a CDK2/Cyclin E fluorescence-based microfluidic mobility shift assay (PerkinElmer).
The active wild type CDK2/Cyclin E complex was purchased from Eurofins (14-475). Compound stocks were prepared in DMSO and were serially diluted into 11 concentrations by 3-fold dilution. […] Compounds were incubated in the presence of CDK2/Cyclin E complex and ATP for 30 minutes at room temperature. Catalytic reaction was initiated with the addition of 5 uL of a 4× peptide solution containing 6 uM fluorescently label substrate peptide, FL Peptide 18 (aa sequence 5-FAM-QSPKKG, PerkinElmer, 760362) in 1× reaction buffer.
The final reaction components were 0.1 nM CDK2/Cyclin E, 2000 uM ATP and 1.5 uM FL Peptide 18 and 1% DMSO. Reactions were incubated RT for 20 hr and terminated with 75 uL of a stopping solution containing 0.5 M EDTA. Samples were analyzed using a LabChip EZ reader (PerkinElmer).

| Compound | IC50 [nM] |
| --- | --- |
| Cc1cc(CC(=O)Nc2cc([C@H]3CC[C@@H](Oc4cccnc4)C3)[nH]n2)on1 (single isomer, unassigned) [Example 339] | 250 to 1000 |
| c1cnc(Nc2cc(C34CCC(CC3)C4)[nH]n2)nc1 [Example 314] | 1000 to 100000 |
| Cc1cc(CC(=O)Nc2cc([C@@H]3CC[C@@H](Cc4nncn4C(C)C)C3)[nH]n2)on1 (single isomer, unassigned) [Example 372] | 1000 to 100000 |
| CC(C)c1ccnnc1O[C@H]1CC[C@@H](c2cc(Nc3nccc4ncsc34)n[nH]2)CC1 [Example 412] | ≤ 100 |
| COCc1cc(C(=O)Nc2cc([C@@H]3CC[C@H](Oc4ccccc4)C3)[nH]n2)n(C)n1 (single isomer, unassigned) [Example 365] | 250 to 1000 |
| COCc1cc(C(=O)Nc2cc([C@H]3CC[C@@H](Oc4cccnc4C)C3)[nH]n2)n(C)n1 (single isomer, unassigned) [Example 385] | 1000 to 100000 |
| COCc1nc2ccnc(Nc3cc([C@H]4C[C@@H](OC(=O)NC(C)C)CO4)[nH]n3)c2s1 (single isomer, unassigned) [Example 467] | 100 to 250 |
| Cc1cncc(O[C@H]2CC[C@@H](c3cc(NC(=O)Cc4cc(C)no4)n[nH]3)C2)c1 (single isomer, unassigned) [Example 354] | 1000 to 100000 |
| COCc1cc(C(=O)Nc2cc([C@@H]3CC[C@](C)(CC(=O)NC(C)C)C3)[nH]n2)n(C)n1 (single isomer, unassigned) [Example 420] | 1000 to 100000 |
| COCc1cc(C(=O)Nc2cc([C@@H]3CC[C@H](Oc4cnccc4C4CC4)C3)[nH]n2)n(C)n1 (single isomer, unassigned) [Example 394] | 100 to 250 |
| Cc1cc(CC(=O)Nc2cc(C3CC3)[nH]n2)on1 [Example 59] | 1000 to 100000 |
| Cc1cc(CC(=O)Nc2cc([C@H]3C[C@@H]4C[C@@H]4C3)[nH]n2)on1 [Example 50] | 1000 to 100000 |
| CCOC(=O)c1cc2c(Nc3cc([C@H]4CC[C@@H](OC(=O)NC(C)C)C4)[nH]n3)nc(C)cn2n1 (single isomer, unassigned) [Example 462] | ≤ 100 |
| Cc1cc(CC(=O)Nc2cc([C@@H]3CC[C@H](NC(=O)[C@H](O)C(C)C)C3)[nH]n2)on1 (single isomer, unassigned) [Example 453] | 1000 to 100000 |
| COCc1cc2c(Nc3cc([C@H]4CC[C@@H](OC(=O)NC(C)C)C4)[nH]n3)nccn2n1 (single isomer, unassigned) [Example 480] | ≤ 100 |
| COCc1nc2ccnc(Nc3cc([C@@H]4CC[C@H](OC(=O)NC(C)C)C4)[nH]n3)c2s1 (single isomer, unassigned) [Example 399] | ≤ 100 |
| CC(C)c1ccnnc1O[C@@H]1CO[C@H](c2cc(Nc3nccn4nccc34)n[nH]2)C1 [Example 465] | ≤ 100 |
| CC(C)c1ccnnc1O[C@H]1C[C@@H](c2cc(Nc3nccc4ncsc34)n[nH]2)C1 [Example 435] | ≤ 100 |
| Cc1cc(CC(=O)Nc2cc([C@H]3CC[C@@H](OC(=O)CC(C)C)C3)[nH]n2)on1 (single isomer, unassigned) [Example 352] | ≤ 100 |
| CC(=O)Nc1nc2ccnc(Nc3cc(C4CC[C@H](OC(=O)NC(C)C)C4)[nH]n3)c2s1 (single isomer, unassigned) [Example 424] | ≤ 100 |
| Cc1cc(CC(=O)Nc2cc([C@H]3CC[C@H](O)C3)[nH]n2)on1 (single isomer, unassigned) [Example 377] | 1000 to 100000 |
| COCc1cc(C(=O)Nc2cc([C@@H]3CC[C@H](Oc4nnccc4C(C)C)C3)[nH]n2)n(C)n1 (single isomer, unassigned) [Example 411] | ≤ 100 |
| COCc1nc2ccnc(Nc3cc([C@@H]4CC[C@H](Oc5nnccc5C(C)C)C4)[nH]n3)c2s1 (single isomer, unassigned) [Example 445] | ≤ 100 |
| COCc1cc(C(=O)Nc2cc([C@@H]3CC[C@H](Oc4cnccc4C)C3)[nH]n2)n(C)n1 (single isomer, unassigned) [Example 367] | 100 to 250 |
| Cc1cc(CC(=O)Nc2cc(C3CCNCC3)[nH]n2)on1 [Example 54] | 1000 to 100000 |

The next lines start with the values.

| IC50 [nM] | Compound |
| --- | --- |
| ≤ 100 | COCc1cc2c(Nc3cc([C@H]4C[C@@H](OC(=O)N[C@@H]5C[C@H]5C)CO4)[nH]n3)nccn2n1 [Example 697] |
| 1000 to 100000 | COCc1cn2c(Nc3cc([C@@H]4C[C@@H](OC(=O)NC5(C)CC5)CO4)[nH]n3)nccc2n1 [Example 904] |
| ≤ 100 | COCc1cc(C(=O)Nc2cc([C@H]3CC[C@@H](c4nccc(C(C)C)n4)C3)[nH]n2)n(C)n1 (single isomer, unassigned) [Example 609] |
| 1000 to 100000 | COCc1cc(C(=O)Nc2cc([C@H]3CC[C@@H](Oc4cncnc4C)C3)[nH]n2)n(C)n1 (single isomer, unassigned) [Example 490] |
| 100 to 250 | COCc1cc(C(=O)Nc2cc([C@H]3C[C@@H](COc4cnn(C)c4C(C)C)C3)[nH]n2)n(C)n1 [Example 631] |
| 1000 to 100000 | COC(=O)c1cnc(C)cc1Nc1cc(C2CCCC2)[nH]n1 [Example 803] |
| 1000 to 100000 | c1ccc(-c2ncnc(Nc3cc(C4CCCC4)[nH]n3)n2)cc1 [Example 871] |
| 1000 to 100000 | COCc1cc(C(=O)Nc2cc([C@H]3C[C@]4(CN(CC(C)C)C(=O)N4)C3)[nH]n2)n(C)n1 [Example 515] |
| ≤ 100 | CC(C)NC(=O)OC[C@H]1C[C@@H](c2cc(NC(=O)c3cc(COC(C)C)nn3C)n[nH]2)C1 [Example 652] |
| ≤ 100 | Cn1nc(C(F)F)cc1C(=O)Nc1cc([C@H]2C[C@@H](OC(=O)NC3(C)CC3)CO2)[nH]n1 [Example 786] |
| ≤ 100 | Cn1nc(CC(F)(F)F)cc1C(=O)Nc1cc([C@H]2C[C@@H](OC(=O)NC3(C)CC3)CO2)[nH]n1 [Example 785] |
| 1000 to 100000 | CC1Cc2nc(Nc3cc(C4CCCC4)[nH]n3)ncc2C(C)O1 (centres unmarked) [Example 809] |
| ≤ 100 | COCc1cc2c(Nc3cc([C@@H]4CC[C@H](OC(=O)NC(C)C)C4)[nH]n3)nccn2n1 (single isomer, unassigned) [Example 481] |
| ≤ 100 | Cn1nc(OCC(F)F)cc1C(=O)Nc1cc([C@@H]2C[C@H](OC(=O)NC34CC(C3)C4)CO2)[nH]n1 [Example 907] |
| 250 to 1000 | COCc1cc(C(=O)Nc2cc([C@H]3CC[C@@H](OC(=O)NC(C)C)CC3)[nH]n2)n(C)n1 [Example 626] |
| 100 to 250 | COCc1cc2c(Nc3cc([C@H]4C[C@H](COC(=O)NC(C)C)C4)[nH]n3)nccn2n1 [Example 560] |
| ≤ 100 | C[C@H](NC(=O)O[C@H]1CO[C@@H](c2cc(NC(=O)c3cc(OCC(F)(F)F)nn3C)n[nH]2)C1)C1CC1 [Example 918] |
| 250 to 1000 | Cn1ncc2c(Nc3cc([C@H]4C[C@@H](OC(=O)NC5(C)CC5)CO4)[nH]n3)nccc21 [Example 747] |
| ≤ 100 | Cn1nc(COC(F)(F)F)cc1C(=O)Nc1ncc([C@H]2C[C@@H](OC(=O)NC3(C)CC3)CO2)s1 (single isomer, unassigned) [Example 903] |

| IC50 [nM] | Compound |
| --- | --- |
| ≤ 100 | CNC(=O)O[C@H]1CC[C@@H](c2cc(Nc3ccc4c(n3)C(C)(C)NC4=O)n[nH]2)C1 (single isomer, unassigned) [Example 530] |
| 250 to 1000 | COCc1cc(C(=O)Nc2cc([C@H]3CC[C@@H](c4ccc(C)[nH]c4=O)C3)[nH]n2)n(C)n1 (single isomer, unassigned) [Example 542] |
| 250 to 1000 | Cc1ncccc1O[C@@H]1CC[C@H](c2cc(Nc3nccn4nccc34)n[nH]2)C1 (single isomer, unassigned) [Example 484] |
| 1000 to 100000 | Cn1cnc2c(Nc3cc([C@H]4C[C@@H](OC(=O)NC5(C)CC5)CO4)[nH]n3)nccc21 [Example 743] |
| ≤ 100 | Cn1nc(COC(F)(F)F)cc1C(=O)Nc1cc([C@@H]2C[C@H](OC(=O)NC34CC(C3)C4)CO2)[nH]n1 [Example 776] |
| 1000 to 100000 | c1cncc(O[C@@H]2CC[C@H](c3cc(Nc4ncnc5ncccc45)n[nH]3)C2)c1 (single isomer, unassigned) [Example 498] |
| 250 to 1000 | COCc1cc(C(=O)Nc2cc([C@H]3CC[C@@H](c4ccc(C)[nH]c4=O)C3)[nH]n2)n(C)n1 (racemic) [Example 518] |
| ≤ 100 | CC1(NC(=O)O[C@H]2CO[C@@H](c3cc(Nc4ccc5c(n4)C(C)(C)NC5=O)n[nH]3)C2)CC1 [Example 723] |
| ≤ 100 | CC(C)NC(=O)O[C@@H]1CC[C@H](c2cc(NC(=O)c3cc(CN4CCC(F)(F)C4)nn3C)n[nH]2)C1 [Example 657] |
| ≤ 100 | CC(C)NC(=O)OC[C@H]1C[C@@H](c2cc(NC(=O)c3cc(COC(F)(F)F)nn3C)n[nH]2)C1 [Example 646] |
| 100 to 250 | OCCOc1cncc(Nc2cc(C3CCCC3)[nH]n2)n1 [Example 842] |
| ≤ 100 | CC1(NC(=O)O[C@H]2CO[C@@H](c3cc(Nc4ccn5nccc5n4)n[nH]3)C2)CC1 [Example 727] |
| 250 to 1000 | COCc1cc(C(=O)Nc2cc([C@H]3C[C@@]4(CN(CC(C)C)C(=O)N4)C3)[nH]n2)n(C)n1 [Example 516] |
| 1000 to 100000 | COCc1cc(C(=O)Nc2cc([C@H]3CC[C@@H](c4cnc(C)cn4)C3)[nH]n2)n(C)n1 (single isomer, unassigned) [Example 576] |
| ≤ 100 | C[C@H](NC(=O)O[C@H]1CO[C@@H](c2cc(Nc3ccc4c(n3)C(C)(C)NC4=O)n[nH]2)C1)C1CC1 [Example 740] |
| 250 to 1000 | COCc1cc2c(Nc3cc([C@H]4C[C@@H](OC(=O)NC5COC5)CO4)[nH]n3)nccn2n1 [Example 683] |
| 1000 to 100000 | Cc1ncccc1OC[C@H]1C[C@H](c2cc(Nc3nccn4nccc34)n[nH]2)C1 [Example 514] |
| 1000 to 100000 | c1c(Nc2ncc3c(n2)C2CCC3C2)n[nH]c1C1CCCC1 (centres unmarked) [Example 794] |
